The source of these data is patent US11066629B2, “Lipid metabolism-promoting composition including isoxanthohumol” (SUNTORY HOLDINGS LIMITED, priority 2016, dated 2021).

One data set deals with high-fat diet model. The data set is described as follows: Measurement of triglyceride (TG) content in liver. As to conditions: livers of Example 1. The data set is classed as in vivo, Mice (C57BL/6J). How it is done:
The neutral fat content (also referred to as “triglyceride content” or “TG content”) in the liver was measured using the liver extracted in Example 1. Specifically, the extracted liver was cut to obtain a section of about 30 mg, and 1 mL of a mixed solution containing methanol (Nacalai Tesque, Inc.) and chloroform (Nacalai Tesque, Inc.) at a ratio of 1:1 was added to the section which was then crushed with a bead beater, whereby triglyceride in the liver was extracted. After centrifugation (12000 g, for 15 minutes), the supernatant was collected, the solution was distilled off, and isopropanol was added for re-dissolution, whereby a sample was prepared. The triglyceride content in the sample was measured using Triglyceride E Test Wako (Wako), and the triglyceride content (mg/g) in the liver per unit weight was calculated. The data was presented as average f standard error. Student's t-test was used as a statistical test, and a difference with p<0.05 was considered significant.

The conditions of data set [1]: heating; isoxanthohumol at 100° C.; cited from earlier work.
A short description of data set [2]: Effect of intake on fat burning, respiratory quotient (Oxymax respirometer). It is filed as in vivo, mice (C57BL/6J). As to conditions: isoxanthohumol 0.2% in feed, 7 days, vs control group. From the text:
The effect of isoxanthohumol intake on fat burning was studied by the following procedure using a respirometer “Oxymax” (Bio Research Center Co., Ltd.).
As for the group structure, there were two groups: a control group and an isoxanthohumol 0.2% group. Eight mice (C57BL/6J, male, 14 weeks of age, CLFA Japan, Inc.) were purchased and acclimatized for about one week. Then, the mice were divided into the control group and the isoxanthohumol 0.2% group (n=4 in each group) by the stratified continuous randomization method based on body weight. Control diet “D12450J” (Research Diets) was used as basic feed. During the test period, the control group was fed with the basic feed, and the isoxanthohumol 0.2% group was fed with mixed feed of the basic feed and the test substance (isoxanthohumol obtained in Preparation Example 1) at a weight ratio of 0.2% relative to the basic feed.
The test period (a period in which the test substance was ingested, and breath analysis was performed) was seven days. […] Using Oxymax (Bio Research Center Co., Ltd.), the oxygen consumption (VO2) and the carbon dioxide output (VCO2) of each individual were measured over time and recorded.
The respiratory quotient (RQ) was calculated using the following formula 1 from the oxygen consumption (VO2) and the carbon dioxide output (VCO2) at each point. […]

The nature of data set [3]: Solubility of isoxanthohumol in various solvents under ice cooling conditions (Experiment B). It is filed as physicochemical. Conditions: for solubility relative to aqueous solution without γ-cyclodextrin: ice cooling. The text has this:
(§1) The solubility of each of the standard samples of xanthohumol and isoxanthohumol in water (Experiment A) and various solvents (Experiment B) under ice cooling conditions was studied to evaluate the suitability for beverage applications. Xanthohumol and isoxanthohumol were the standard samples obtained in Preparation Example 1 (purity of 95% or higher).
Distilled water, a hop extract, and 0.2% (w/v) or 1.0% (w/v) aqueous solution of β-cyclodextrin or γ-cyclodextrin (both Nacalai Tesque, Inc.) were prepared as solvents to study the solubility of isoxanthohumol under ice cooling conditions. As for the hop extract, hops (Saaz) that had been crushed into pellets were extracted with distilled water in an amount 10 times the weight of the pellets by shaking at room temperature for about 60 minutes, and the filtrate obtained by suction filtration was used for the test. The isoxanthohumol concentration in the hop extract was less than 0.5 ppm. A sample containing a solvent and isoxanthohumol having a weight corresponding to 0.2% (w/v) of the solvent was prepared for each of the above solvents, and the standard sample was allowed to dissolve in water as much as possible by stirring in a vortex mixer for 10 seconds or longer and shaking for about 60 minutes under ice cooling conditions. Centrifugation and quantitative analysis were performed as in Experiment A to evaluate the solubility of isoxanthohumol in each solvent.

Data set [4] in a line: Solubility in water under ice cooling conditions (Experiment A). It is filed as physicochemical. As to conditions: distilled water, ppm on w/v basis.
Description: as §1
A sample containing distilled water and xanthohumol or isoxanthohumol having a weight corresponding to 0.2% (w/v) of the distilled water was prepared, and each standard sample was allowed to dissolve in distilled water as much as possible by stirring in a vortex mixer for 10 seconds or longer and shaking for about 60 minutes under ice cooling conditions. Further, centrifugation was performed (12,000 rpm, 4° C., for 5 minutes), and the supernatant was collected. This procedure was repeated three times. The finally obtained supernatant was used as a xanthohumol saturated aqueous solution or an isoxanthohumol saturated aqueous solution. The saturated aqueous solution was 100-fold diluted with a 25% aqueous ethanol solution to obtain a sample for analysis. The sample was subjected to quantitative analysis using an LC-MS/MS system (TSQ Quantiva, Thermo Fisher Scientific Inc.) to evaluate the solubility in water. […] Note that ppm is ppm on w/v basis unless otherwise specified. […]

As to `COc1cc(O)c(CC=C(C)C)c2c1C(=O)CC(c1ccc(O)cc1)O2` (stereo not shown) [isoxanthohumol], the “neutral fat (triglyceride) content in the liver” value in the data set on high-fat diet model (isoxanthohumol-administered group vs high-fat diet group) is recorded as “significantly lower”. Moreover, in the data set with high-fat diet model, the “action on neutral fat content in the liver compared with xanthohumol” value was “stronger than that of xanthohumol”. The thermal stability result in data set [1] is “stable even at a high temperature of 100 °C”. Further, the “respiratory quotient (RQ)” value in data set [2] is listed as “lower”. The “solubility relative to aqueous solution without γ-cyclodextrin” value was “about 5 times” in data set [3] (0.2% (w/v) γ-cyclodextrin) and “about 18 times” in data set [3] (1.0% (w/v) γ-cyclodextrin). The “Solubility (ice cooling conditions)” value in data set [3] (solvent: 0.2% β-Cyclodextrin) is 18.4 ppm; in data set [3] (solvent: 0.2% γ-Cyclodextrin), 33.6 ppm; in data set [3] (solvent: 1.0% β-Cyclodextrin) it was 52.0 ppm; in data set [3] (solvent: 1.0% γ-Cyclodextrin) it was 115.5 ppm; in data set [3] (solvent: Distilled water), 6.3 ppm; in data set [3] (solvent: Hop extract), 13.7 ppm. The “Solubility in water (ice cooling conditions)” value in data set [4] is recorded as 6.3 ppm.
